Experimental data as given in patent US20240166641A1, “HETEROCYCLES AND USES THEREOF” (Kumquat Biosciences Inc., priority 2021, published 2024).

Legend:
PTP1B = target: T1, PTP1B (Homo sapiens, UniProt P18031); assay: Phosphatase activity assay (Bio-Biochem-DiFMUP), PTP1B; type: biochemical; conditions: DiFMUP substrate, room temperature
T1 sequence (P18031 1-435): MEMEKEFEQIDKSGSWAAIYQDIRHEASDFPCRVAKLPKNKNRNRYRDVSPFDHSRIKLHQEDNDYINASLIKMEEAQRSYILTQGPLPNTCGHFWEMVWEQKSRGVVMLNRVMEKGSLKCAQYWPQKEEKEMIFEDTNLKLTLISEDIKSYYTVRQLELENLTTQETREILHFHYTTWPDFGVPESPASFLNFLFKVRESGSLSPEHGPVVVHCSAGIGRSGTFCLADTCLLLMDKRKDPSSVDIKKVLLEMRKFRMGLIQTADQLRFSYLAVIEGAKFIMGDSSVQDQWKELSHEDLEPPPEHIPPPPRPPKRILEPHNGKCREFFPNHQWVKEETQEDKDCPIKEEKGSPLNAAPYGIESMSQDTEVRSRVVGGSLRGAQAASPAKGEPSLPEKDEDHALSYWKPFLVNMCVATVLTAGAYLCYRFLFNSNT
Outline: (§1)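 Buffer was 50 mM Bis-Tris pH 6.3, 2 mM EDTA, 5 mM DMH, with 10 μM FDP or DiFMUP substrate, enzyme added last, at room temperature. Fluorescent product was read continuously for 15–30 min (DiFMU ex 360/em 450 nm; FMP ex 440/em 530 nm). Initial rates against 10-point inhibitor series were fitted with a 4-parameter equation to give IC50.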

[1] = tested on: C57B3L/6 mouse primary T cells; assay: T-cell activation: CD25 expression on primary T cells stimulated with anti-CD3/CD28; type: cell-based; conditions: 10 uM compound, primary T cells stimulated with antibodies to CD3 and CD28
Method: The increase of T cell activation and most importantly T cell function is a strategy for novel immune oncology approaches to promote tumor immunity. In vitro assays using wildtype C57B3L/6 mouse primary T cells are commonly used to assess the impact of compound on T cell activation and function. To assess the ability of compounds disclosed here (e.g., PTPN2 inhibitors) to stimulate T cell activation, primary T cells stimulated with antibodies to CD3 and CD28 are treated with or without exemplary compounds (at 10 uM) disclosed herein are stained with antibodies directed to T-cell activation markers, such as CD25. Additional markers including without limitation CD69, SLAMF6, TIM3, and PD1 can also be employed as a proxy for T cell activation.

PTPN2 = target: T2, PTPN2 (Homo sapiens, UniProt P17706); assay: Phosphatase activity assay (Bio-Biochem-DiFMUP), PTPN2; type: biochemical; conditions: DiFMUP substrate, room temperature
T2 sequence (P17706 1-415): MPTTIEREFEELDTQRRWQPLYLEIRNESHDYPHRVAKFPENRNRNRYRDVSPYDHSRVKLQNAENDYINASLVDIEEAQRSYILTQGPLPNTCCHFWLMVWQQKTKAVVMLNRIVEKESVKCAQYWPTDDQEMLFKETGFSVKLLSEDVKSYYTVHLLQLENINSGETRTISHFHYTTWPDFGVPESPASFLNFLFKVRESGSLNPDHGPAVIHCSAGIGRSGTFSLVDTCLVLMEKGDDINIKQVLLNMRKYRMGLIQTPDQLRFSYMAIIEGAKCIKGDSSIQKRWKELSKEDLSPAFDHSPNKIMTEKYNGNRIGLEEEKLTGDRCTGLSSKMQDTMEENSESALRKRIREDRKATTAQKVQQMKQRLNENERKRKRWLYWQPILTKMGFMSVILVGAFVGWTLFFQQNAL
Outline: as §1

mouse C57BL/6 T cells = assay: pSTAT1 signaling in IFNα-stimulated T cells, flow cytometry; type: cell-based; conditions: T-cell, 10 uM compound, T cells stimulated for 5 hours by IFNα, read-out: % pSTAT1 in cells treated with subject compounds relative to negative control (DMSO)
Method: IFNα signaling in mouse C57BL/6 T cells promotes activation of multiple signaling pathways associated with antitumor responses. A key target of this signaling is phosphorylation of the transcription factor STAT1. […] T cells are stimulated for 5 hours by IFNα in the presence or absence of exemplified compounds disclosed herein (e.g., PTPN2 inhibitors) and stained intracellularly with antibodies for phosphorylated STAT1 and then analyzed by flow cytometry. Enhancement of phosphorylation of STAT1 is read out as a percentage over the DMSO control.

B16F10 cells [2] = assay: Tumor infiltrating lymphocyte exhaustion assay; type: in vivo, mouse; conditions: Day 7 post dosing, B16F10 tumors in C57BL/6 mice
Text: The same mouse model is utilized to assess the amount of tumor infiltrating lymphocytes when treated with or without an exemplary compound A of the present disclosure. C57BL/6 mice were implanted with 5*10^5 B16F10 cells formulated in Matrigel via the subcutaneous route. After tumors reached a size of 50-150 mm^3, mice were randomized. 7 days post randomization, tumor cells were processed on a GentleMACS octo dissociator and stained for exhaustion markers using a panel of antibodies: Live/Dead, CD45.1, CD8, TIM-3, PD-1, SLAMF6, CD11b, CD38. In parallel, splenocytes were stained with the same cocktail of antibodies and analyzed by flow cytometry. […] PTPN2 inhibitors are tested in the described TIL exhaustion assay to measure modulation of exhaustion in the tumor microenvironment.

B16F10 cells [3] = assay: In vivo efficacy in B16F10 mouse tumor model; conditions: B16F10 in female C57BL/6 mice, oral BID, 100 or 300 mg/kg/dose
Method: Cells are grown to passage 3 in vitro. A total of 1 to 5×10^5 viable B16F10 cells are inoculated subcutaneously into the right flank of female C57BL/6 mice (7-12 weeks old) on Day 0. The injection volume is 0.1 mL and is composed of a 1: 1 mixture of S-MEM and Matrigel® (Corning, NY, USA). The mean tumor volume (TV) at randomization is approximately 100-200 mm^3. Following randomization, treatments are initiated on the same day. Dosing of mice is conducted orally, twice a day (BID). Mice are dosed (100 mg/kg/dose or 300 mg/kg/dose) with a compound described herein or vehicle controls. Tumor volume is calculated three times weekly. Measurements of the length (L) and width (W) of the tumor are taken via electronic caliper and the volume is calculated according to the following equation: V=L×W^2/2. Tumor growth inhibition (TGI) is calculated as TGI=1−(Mean TV Timepoint(Treatment)/MeanTV Timepoint (Vehicle)) for each timepoint that tumor volumes are measured and depicted in FIG. 3.

[4] = mouse PK PO (oral pharmacokinetics, Compound A vs. Reference CMPD); type: in vivo; conditions: identical oral dosing
Method: (§2) Furthermore, an AUCfinal for Compound A was measured to be 356% that of the Reference CMPD measured in the same manner and at the same time in the same mouse model. […] Furthermore, an AUCfinal for Compound A was measured to be 224% that of the Reference CMPD measured in the same manner and at the same time in the same rat model.

[5] = Rat PK PO (oral pharmacokinetics, Compound A vs. Reference CMPD); type: in vivo; conditions: identical oral dosing
Method: as §2

[6] = tested on: B16F10 mouse melanoma cells; assay: MHC expression associated with IFNγ signaling, flow cytometry; type: cell-based; conditions: B16-F10, 3 uM compound, 48 hours, normalized to DMSO/with IFNγ control, read-out: % MHC in cells treated with Compound at 3 uM relative to negative control (DMSO)
Method: B16F10 mouse melanoma cells (ATCC Cat #CRL-6475, Manassas, VA) are seeded at approximately a density of 500 cells per well in a 384-well clear bottom plate (Corning Cat #3765, Corning, 5 NY) in 25 μL total volume of DMEM+10% FBS (Sigma Cat #D6429 and Sigma Cat #F4135, St. Louis, MO). Cells are allowed to adhere overnight at 37° C.+5% CO2. On the following day, 12.5 μL of mouse IFNγ (RD systems Cat #485-MI/CF, Minneapolis, MN) is added to half of the plate (columns 13-24) at a concentration of 2 ng/mL for a final assay concentration of 0.5 ng/mL of IFNγ. Media only (12.5 μL of DMEM+10% FBS) is added to the remainder of the 10 plate (columns 1-12). Next, compounds resuspended in DMSO (Sigma Cat #D2650) at 100 mM are diluted in semi-log dilutions in DMSO ranging from 100 mM to 0.001 mM and DMSO only controls are included. The compound/DMSO dilutions are further diluted 1:250 in DMEM+10% FBS, and 12.5 μL of these dilutions are added in triplicates to cells of both treatment arms (with and without IFNγ). Compounds are only dosed in the inner 240 wells, avoiding the outer 2-well perimeter of the plate to minimize edge effects. Finally, the plate is loaded into an IncuCyte® S3 Live Cell Analysis System (Essen Bioscience-Sartorius, Ann Arbor, MI) maintained in a 37° C.+5% CO2 incubator, allowed to equilibrate for 2 hours, and treated for 48 hours. MHC levels are measured by flow cytometry using a FITC anti-mouse H-2kb antibody (clone AF6-88.5), and levels are normalized based on DMSO/with IFNγ control. Table 7 below summarizes the percentage in MHC expression in cells treated with or without compounds disclosed herein at a specified concentration.

[7] = mouse PK PO, relative to Reference CMPD of WO2019/246513
[8] = Rat PK PO, relative to Reference CMPD of WO2019/246513

Row | IC50 (PTP1B) [µM] | IC50 (PTPN2) [µM] | SMILES | % CD25 expression in cells treated with subject compounds relative to negative control (DMSO) [1] [%] | activity at 10 µM (mouse C57BL/6 T cells) [%] | also measured
1 | ≤ 1 | ≤ 1 | CC(C)Oc1ccc2cc(O)c(N3CC(=O)NS3(=O)=O)c(F)c2n1 [Compound 192] | 375 | 183 | 
2 | ≤ 1 | ≤ 1 | O=C1CN(c2c(O)cc3ccc(OC(F)F)nc3c2F)S(=O)(=O)N1 [Compound 197] | 436 | 196 | activation at 3 µM [6]: > 10%

Second part, the molecule before the results:

Row | SMILES | IC50 (PTP1B) [µM] | IC50 (PTPN2) [µM] | % CD25 expression in cells treated with subject compounds relative to negative control (DMSO) [1] [%] | activity at 10 µM (mouse C57BL/6 T cells) [%] | also measured
3 | O=C1CN(c2c(O)cc3ccc(OC4CCC4)nc3c2F)S(=O)(=O)N1 [Compound 205] | ≤ 1 | ≤ 1 | 423 |  | 
4 | COc1ccc2cc(O)c(N3CC(=O)NS3(=O)=O)c(F)c2n1 [Compound A] |  |  |  |  | CD38+/CD11b+ “M1” Macrophages (B16F10 cells [2]): increase; TIM3+/PD1+ T cells (B16F10 cells [2]): increase; Tumor volume / tumor growth inhibition (FIG. 3) (B16F10 cells [3]): apparent tumor stasis and shrinkage; % F, Compound A vs. Reference CMPD ((Compound A/Reference CMPD) × 100%) [4, 7]: 195%; AUClast, Compound A vs. Reference CMPD ((Compound A/Reference CMPD) × 100%) [4, 7]: 356%; Cmax, Compound A vs. Reference CMPD ((Compound A/Reference CMPD) × 100%) [4, 7]: 495%; AUCfinal of Compound A as % of that of the Reference CMPD ([4]; mouse pharmacokinetic model, relative to Reference CMPD): 356%; % F, Compound A vs. Reference CMPD ((Compound A/Reference CMPD) × 100%) [5, 8]: 208%; AUClast, Compound A vs. Reference CMPD ((Compound A/Reference CMPD) × 100%) [5, 8]: 224%; Cmax, Compound A vs. Reference CMPD ((Compound A/Reference CMPD) × 100%) [5, 8]: 155%; AUCfinal of Compound A as % of that of the Reference CMPD ([5]; rat pharmacokinetic model, relative to Reference CMPD): 224%
5 | CC(C)CCOc1cc2c(F)c(N3CC(=O)NS3(=O)=O)c(O)cc2n(C)c1=O [Compound 136, 5-(5-fluoro-7-hydroxy-3-(isopentyloxy)-1-methyl-2-oxo-1,2-dihydroquinolin-6-yl)-1,2,5-thiadiazolidin-3-one 1,1-dioxide] | ≤ 1 | ≤ 1 |  | 131 | 
6 | CC(C)Nc1cc2c(F)c(N3CC(=O)NS3(=O)=O)c(O)cc2n(C2CC2)c1=O [Compound 133] | ≤ 1 | ≤ 1 |  | 170 | 
